What was measured:
[1] = system: breast cancer cell lines with dysregulated centromere complex; assay: Drug response (AUC) of cell lines with vs without dysregulation in the centromere complex; type: cell-based; conditions: 41 breast cancer cell lines, AUC ratio, FIG. 32B
Experimental: (§1) The drug candidates were screened at different concentrations, and the response to each drug candidate was measured as an area under the curve (AUC). Three known complexes—the BRCA1-associated genome surveillance complex, the centromere, and the proteasome—were selected from the CORUM database, and for each complex, the cell lines evaluated were separated into a first group in which cell lines carried dysregulated protein-protein interactions on any of the proteins in the complex, and a second group in which cell lines carried no dysregulations on any of the proteins in the complex.
(§2) Each figure is a plot showing how protein-protein interaction dysregulation in one of the selected complexes affects the responses of the evaluated breast cancer cell lines to different drug candidates. In each plot, every data point represents a different drug candidate. The horizontal axis in each plot represents the base 2 logarithm of the ratio of the drug candidate response in cell lines with dysregulation to the drug candidate response in cell lines without dysregulation. The vertical axis in each plot, which corresponds to the base 10 logarithm of the Grubbs test p-value, represents the significance of the drug candidate response difference.

Aurora Kinases = conditions: cited from earlier work
[2] = system: breast cancer cell lines with dysregulated proteasome complex; assay: Drug response (AUC) of cell lines with vs without dysregulation in the proteasome complex; type: cell-based; conditions: 41 breast cancer cell lines, AUC ratio, FIG. 32C
Experimental: as §1
as §2, with “difference. […]” for “difference.”

LDKR1-4 cell lines = assay: Ceritinib sensitivity of resistant clones LDKR1-4; type: cell-based
Experimental: (§3) In the particular study reported here, resistance to the small molecule ALK inhibitor Ceritinib was studied. The patient-derived cell line H3122 is a NSCLC line with an EML4-ALK fusion, and it is sensitive to Ceritinib. To simulate the clinical development of therapeutic resistance following initial treatment, this cell line was cultured over a period of 6 months with low but increasing doses of Ceritinib. […] These clones were expanded and comprise the cell lines LDKR1-4.
(§4) FIG. 5 is a schematic diagram showing the development of the cell lines.

ALK = ALK (Homo sapiens, UniProt Q9UM73); assay: Proteomic/phosphoproteomic profiling of ALK phosphorylation after Ceritinib treatment; type: cell-based
Chain of ALK (Q9UM73 with tags, fused parts or gaps): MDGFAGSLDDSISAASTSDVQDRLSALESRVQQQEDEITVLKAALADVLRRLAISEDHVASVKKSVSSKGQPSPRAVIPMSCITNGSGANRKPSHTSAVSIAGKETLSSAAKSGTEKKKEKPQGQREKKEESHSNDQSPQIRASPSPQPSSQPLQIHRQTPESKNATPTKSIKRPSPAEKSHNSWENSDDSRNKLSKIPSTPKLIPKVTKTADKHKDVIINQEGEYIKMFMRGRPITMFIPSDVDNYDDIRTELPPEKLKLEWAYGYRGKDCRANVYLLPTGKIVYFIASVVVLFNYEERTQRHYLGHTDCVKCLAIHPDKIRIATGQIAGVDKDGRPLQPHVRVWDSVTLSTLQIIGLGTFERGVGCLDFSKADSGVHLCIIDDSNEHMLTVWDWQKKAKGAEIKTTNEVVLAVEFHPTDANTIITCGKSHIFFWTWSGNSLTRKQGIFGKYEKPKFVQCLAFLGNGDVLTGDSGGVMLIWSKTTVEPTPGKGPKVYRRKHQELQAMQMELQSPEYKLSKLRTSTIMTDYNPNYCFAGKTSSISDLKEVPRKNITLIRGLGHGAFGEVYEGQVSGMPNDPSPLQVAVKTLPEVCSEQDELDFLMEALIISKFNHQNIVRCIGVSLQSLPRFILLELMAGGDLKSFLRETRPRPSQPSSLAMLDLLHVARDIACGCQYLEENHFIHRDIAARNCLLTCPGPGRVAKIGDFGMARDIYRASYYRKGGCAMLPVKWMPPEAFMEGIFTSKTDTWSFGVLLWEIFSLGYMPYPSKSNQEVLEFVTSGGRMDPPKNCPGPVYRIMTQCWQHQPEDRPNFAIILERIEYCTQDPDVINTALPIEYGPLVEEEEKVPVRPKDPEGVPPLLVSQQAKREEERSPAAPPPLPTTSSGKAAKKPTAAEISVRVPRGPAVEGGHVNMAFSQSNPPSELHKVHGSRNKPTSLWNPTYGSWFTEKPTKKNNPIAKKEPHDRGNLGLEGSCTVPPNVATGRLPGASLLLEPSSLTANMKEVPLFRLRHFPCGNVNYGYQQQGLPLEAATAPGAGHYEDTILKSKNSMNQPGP
Experimental: The H3122 parental and LDKR1-4 cell lines were each grown in culture with or without the addition of Ceritinib for 24 hours, and harvested cells were subsequently processed for both proteomic and phosphoproteomic analyses. Specifically, each of the cell lines was cultured in RPMI-1640 media supplemented with 10% FBS, 100 units/mL penicillin, and 100 μg/mL streptomycin. Cells were treated for 24 hours with 300 nM Ceritinib (also known as LDK378). Cells were collected, and the cell pellets were resuspended in mammalian lysis buffer and lysed by passage through a 21 gauge needle. The lysate was centrifuged at 15,000×g for 5 minutes at 4° C., and insoluble debris was discarded.
The lysates were then prepared for mass spectrometry analysis. Samples were reduced with DTT, alkylated with iodoacetamide, and precipitated with methanol/chloroform. […] Samples were quenched with 1% TFA and desalted using Sep-Pak C18 (SPE) cartridges (obtained from Waters Corp., Milford, MA). The peptide concentration of each sample was determined using a BCA assay.
For phosphoproteomic analysis, 2.0 mg of digested peptides were enriched for phosphopeptides using titanium dioxide beads, labeled with TMT10-plex reagents, and further enriched with a phosphotyrosine antibody. Specifically, 8 mg of titanium dioxide beads were incubated with the peptide in binding buffer (2 M lactic acid in 50% ACN/50% H2O) for 1 hour with gentle shaking. […] Samples were acidified and desalted over Sep-Pak C18 SPE cartridges.

H3122 cell line = assay: Ceritinib sensitivity of parental H3122 cell line; type: cell-based; conditions: Homo sapiens, NCI-H3122; ALK-positive H3122 parental cell line
Experimental: as §3, §4

[3] = system: breast cancer cell lines with dysregulated BRCA1-associated genome surveillance complex; assay: Drug response (AUC) of cell lines with vs without dysregulation in the BRCA1-associated genome surveillance complex; type: cell-based; conditions: 41 breast cancer cell lines, AUC ratio dysregulated/not dysregulated, FIG. 32A
Experimental: as §1, §2

[4] = molecular target: T1, polo-like Kinase 4 (PLK4) (Homo sapiens, UniProt O00444); conditions: cited from earlier work
T1 sequence (O00444 1-970): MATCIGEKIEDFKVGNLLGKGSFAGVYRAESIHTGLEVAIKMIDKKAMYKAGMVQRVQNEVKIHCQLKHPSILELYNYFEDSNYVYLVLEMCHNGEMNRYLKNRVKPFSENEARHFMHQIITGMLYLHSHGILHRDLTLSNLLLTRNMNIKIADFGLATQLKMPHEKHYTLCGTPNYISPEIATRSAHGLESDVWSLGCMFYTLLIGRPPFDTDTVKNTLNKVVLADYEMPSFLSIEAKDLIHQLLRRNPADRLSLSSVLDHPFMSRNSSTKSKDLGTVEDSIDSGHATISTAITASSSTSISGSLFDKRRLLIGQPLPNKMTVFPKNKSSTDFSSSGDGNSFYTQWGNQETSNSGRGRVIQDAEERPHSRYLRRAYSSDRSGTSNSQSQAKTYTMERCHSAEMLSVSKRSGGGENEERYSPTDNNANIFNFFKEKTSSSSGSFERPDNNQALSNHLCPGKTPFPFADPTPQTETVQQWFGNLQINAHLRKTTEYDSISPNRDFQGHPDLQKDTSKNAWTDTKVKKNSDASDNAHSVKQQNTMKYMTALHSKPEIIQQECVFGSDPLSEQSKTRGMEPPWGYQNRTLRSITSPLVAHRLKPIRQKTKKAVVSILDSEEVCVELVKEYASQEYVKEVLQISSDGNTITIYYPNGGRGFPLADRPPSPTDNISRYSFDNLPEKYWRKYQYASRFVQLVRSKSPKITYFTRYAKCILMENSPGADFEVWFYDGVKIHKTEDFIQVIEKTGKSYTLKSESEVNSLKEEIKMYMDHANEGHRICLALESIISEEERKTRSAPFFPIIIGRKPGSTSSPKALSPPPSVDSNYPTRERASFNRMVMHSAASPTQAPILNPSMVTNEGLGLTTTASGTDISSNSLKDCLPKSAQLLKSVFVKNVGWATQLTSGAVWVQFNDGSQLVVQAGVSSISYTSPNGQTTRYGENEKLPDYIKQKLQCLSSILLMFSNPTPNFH

[5] = parental H3122, 300 nM Ceritinib, 24 hours, ratio to parental with no drug

## O=C(CCCCCCNC(=O)c1cnc(N(c2ccccc2)c2ccccc2)nc1)NO [ACY-1215]
[1]
  effect of dysregulation in the centromere complex on cell line response to drug: sensitize

## Cc1cc(Nc2nc(N[C@@H](C)c3ncc(F)cn3)ncc2Cl)n[nH]1 [AZD1480]
Aurora Kinases
  inhibition of Aurora Kinases: potently inhibit

## C#Cc1cccc(Nc2ncnc3cc(OC)c(OCCCCCCC(=O)NO)cc23)c1 [CUDC-101]
[1]
  effect of dysregulation in the centromere complex on cell line response to drug: sensitize

## CC(C)C[C@H](NC(=O)[C@H](CCc1ccccc1)NC(=O)CN1CCOCC1)C(=O)N[C@@H](Cc1ccccc1)C(=O)N[C@@H](CC(C)C)C(=O)[C@@]1(C)CO1 [Carfilzomib]
[2]
  effect of dysregulation in the proteasome complex on cell line response to drug: densensitized

## Cc1cc(Nc2ncc(Cl)c(Nc3ccccc3S(=O)(=O)C(C)C)n2)c(OC(C)C)cc1C1CCNCC1 [Ceritinib]
LDKR1-4 cell lines; four resistant clones vs parental H3122
  IC50 relative to the parental sensitive cell line: at least twenty times higher
LDKR1-4 cell lines; resistant clones LDKR1-4
  IC50: 1490 to 3900 nM
ALK; LDKR1-4, Ceritinib treatment
  inhibition of ALK activity in resistant cell lines: continued to be effective at inhibiting ALK activity in at least three of the four resistant cell lines
ALK; [5]
  ALK Thr 1506/Tyr 1507/Ser 1509 phosphorylation upon drug treatment: decreasing fourfold
  ALK Tyr 1078 phosphorylation upon drug treatment: decreased
H3122 cell line
  IC50: 53 nM

## Nc1ccn([C@@H]2O[C@H](CO)[C@@H](O)C2(F)F)c(=O)n1 [Gemcitabine]
[3]
  effect of dysregulation in the genome surveillance complex on cell line response to drug: sensitize

## O=C(/C=C/c1ccc(CN(CCO)CCc2c[nH]c3ccccc23)cc1)NO [LAQ824]
[1]
  effect of dysregulation in the centromere complex on cell line response to drug: sensitize

## NC(=O)Nc1sc(-c2ccc(F)cc2)cc1C(N)=O [TPCA-1]
Aurora Kinases
  inhibition of Aurora Kinases: potently inhibit

## COc1cc2c(Oc3ccc(NC(=O)C4(C(=O)Nc5ccc(F)cc5)CC4)cc3F)ccnc2cc1OCCCN1CCOCC1 [XL-880, foretinib]
Aurora Kinases
  inhibition of Aurora Kinases: potently inhibit
[4]
  inhibition of polo-like Kinase 4 (PLK4): inhibits

## Bleomycin
[3]
  effect of dysregulation in the genome surveillance complex on cell line response to drug: sensitize

From patent publication US11899022B2, “Multiplexed proteomics and predictive drug candidate assessment” (The General Hospital Corporation, priority 2017, dated 2024)
